{"source": "PubChem BioAssay AID330", "about": "(DTP/NCI, 2004)", "tested_on": "P388 leukemia ip, CD2F1 mice, survival T/C", "assay": "NCI In Vivo Anticancer Drug Screen. Data for tumor model P388 Leukemia (intraperitoneal) in CD2F1 (CDF1) mice", "details": "endpoint: median survival time, higher = longer survival", "how_it_was_run": "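Mice carrying the transplanted tumor received test compound or vehicle. Survival was recorded in each group, and the value is the treated-group measurement divided by that of the vehicle-treated control group.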", "key": {"[1]": {"details": "dose: 50.0 mg/kg/injection, schedule: Q01DX009 (ip), vehicle: Klucel (hydroxypropylcellulose) (HPC)"}, "[2]": {"details": "dose: 100.0 mg/kg/injection, schedule: Q01DX009 (ip), vehicle: Klucel (hydroxypropylcellulose) (HPC)"}, "[3]": {"details": "dose: 200.0 mg/kg/injection, schedule: Q01DX009 (ip), vehicle: Klucel (hydroxypropylcellulose) (HPC)"}, "[4]": {"details": "dose: 12.5 mg/kg/injection, schedule: Q01DX005 (ip), vehicle: saline with Tween-80"}, "[5]": {"details": "dose: 25.0 mg/kg/injection, schedule: Q01DX005 (ip), vehicle: saline with Tween-80"}, "[6]": {"details": "dose: 50.0 mg/kg/injection, schedule: Q01DX005 (ip), vehicle: saline with Tween-80"}, "[7]": {"details": "dose: 50.0 mg/kg/injection, schedule: Q01DX005 (ip), vehicle: Klucel (hydroxypropylcellulose) (HPC)"}, "[8]": {"details": "dose: 100.0 mg/kg/injection, schedule: Q01DX005 (ip), vehicle: Klucel (hydroxypropylcellulose) (HPC)"}, "[9]": {"details": "dose: 200.0 mg/kg/injection, schedule: Q01DX005 (ip), vehicle: Klucel (hydroxypropylcellulose) (HPC)"}, "[10]": {"details": "dose: 60.0 mg/kg/injection, schedule: Q01DX005 (ip), vehicle: saline with Tween-80"}, "[11]": {"details": "dose: 120.0 mg/kg/injection, schedule: Q01DX005 (ip), vehicle: saline with Tween-80"}, "[12]": {"details": "dose: 240.0 mg/kg/injection, schedule: Q01DX005 (ip), vehicle: saline with Tween-80"}, "[13]": {"details": "dose: 100.0 mg/kg/injection, schedule: Q01DX005 (ip), vehicle: saline with Tween-80"}, "[14]": {"details": "dose: 200.0 mg/kg/injection, schedule: Q01DX005 (ip), vehicle: saline with Tween-80"}}, "note": "Where “and” joins values, the source holds several entries; their conditions need not be identical. Equal entries are not always repeated. Toxic doses and inconclusive results are not listed."}
{"smiles": "O=C(O)CC12CC3CC(CC(=O)O)(C1)CC(CC(=O)O)(C3)C2", "values": [{"measurement": "T/C", "setting": "[1]", "value": "109 % of control"}, {"measurement": "T/C", "setting": "[2]", "value": "108 % of control"}, {"measurement": "T/C", "setting": "[3]", "value": "111 % of control"}]}
{"smiles": "Clc1cccc2sc(Nc3c4ccccc4nc4ccccc34)nc12", "values": [{"measurement": "T/C", "setting": "dose: 12.5 mg/kg/injection, schedule: Q04DX002 (ip), vehicle: distilled water + Tween-80", "value": "95 % of control"}, {"measurement": "T/C", "setting": "dose: 25.0 mg/kg/injection, schedule: Q04DX002 (ip), vehicle: distilled water + Tween-80", "value": "89 % of control"}, {"measurement": "T/C", "setting": "dose: 50.0 mg/kg/injection, schedule: Q04DX002 (ip), vehicle: distilled water + Tween-80", "value": "95 % of control"}, {"measurement": "T/C", "setting": "dose: 100.0 mg/kg/injection, schedule: Q04DX002 (ip), vehicle: distilled water + Tween-80", "value": "97 % of control"}, {"measurement": "T/C", "setting": "dose: 200.0 mg/kg/injection, schedule: Q04DX002 (ip), vehicle: distilled water + Tween-80", "value": "97 % of control"}, {"measurement": "T/C", "setting": "dose: 400.0 mg/kg/injection, schedule: Q04DX002 (ip), vehicle: distilled water + Tween-80", "value": "97 % of control"}]}
{"smiles": "CC1(C)N=C(N)N=C(N)N1c1ccc(S(C)(=O)=O)cc1", "values": [{"measurement": "T/C", "setting": "[4]", "value": "103 % of control"}, {"measurement": "T/C", "setting": "[5]", "value": "101 % of control"}, {"measurement": "T/C", "setting": "[6]", "value": "100 % of control and 106 % of control"}]}
{"smiles": "CCOC(=O)C1=C(c2ccccc2)OC(N)=C(C#N)C1c1ccccc1Cl", "note": "(centres undefined)", "values": [{"measurement": "T/C", "setting": "[7]", "value": "96 % of control"}, {"measurement": "T/C", "setting": "[8]", "value": "105 % of control"}, {"measurement": "T/C", "setting": "[9]", "value": "107 % of control"}]}
{"smiles": "O=C1Nc2ccccc2NC(=O)C1(O)O", "values": [{"measurement": "T/C", "setting": "[7]", "value": "100 % of control"}, {"measurement": "T/C", "setting": "[8]", "value": "101 % of control"}, {"measurement": "T/C", "setting": "[9]", "value": "101 % of control"}]}
{"smiles": "Nc1nc(-c2cc(C(c3ccccc3)c3ccccc3)nc(N)n2)cc(C(c2ccccc2)c2ccccc2)n1", "values": [{"measurement": "T/C", "setting": "[10]", "value": "105 % of control"}, {"measurement": "T/C", "setting": "[11]", "value": "109 % of control"}, {"measurement": "T/C", "setting": "[12]", "value": "101 % of control"}]}
{"smiles": "Cn1c(CCCC(=O)O)nc2cc(N(CCCl)CCCl)ccc21", "values": [{"measurement": "T/C", "setting": "dose: 5.0 mg/kg/injection, schedule: Q01DX009 (ip), vehicle: saline sonified", "value": "154 % of control"}, {"measurement": "T/C", "setting": "dose: 9.9 mg/kg/injection, schedule: Q04DX003 (ip), vehicle: saline with Tween-80", "value": "150 % of control"}, {"measurement": "T/C", "setting": "dose: 10.0 mg/kg/injection, schedule: Q01DX009 (ip), vehicle: saline sonified", "value": "168 % of control"}, {"measurement": "T/C", "setting": "dose: 22.5 mg/kg/injection, schedule: Q04DX003 (ip), vehicle: saline with Tween-80", "value": "163 % of control"}]}
{"smiles": "CC1NCCc2[nH]cnc21", "note": "(centres undefined)", "values": [{"measurement": "T/C", "setting": "dose: 50.0 mg/kg/injection, schedule: Q01DX009 (ip), vehicle: saline", "value": "96 % of control"}, {"measurement": "T/C", "setting": "dose: 100.0 mg/kg/injection, schedule: Q01DX009 (ip), vehicle: saline", "value": "100 % of control"}, {"measurement": "T/C", "setting": "dose: 200.0 mg/kg/injection, schedule: Q01DX009 (ip), vehicle: saline", "value": "105 % of control"}]}
{"smiles": "NC(=O)Oc1ccccc1", "values": [{"measurement": "T/C", "setting": "dose: 100.0 mg/kg/injection, schedule: Q04DX003 (ip), vehicle: saline with Tween-80", "value": "100 % of control"}, {"measurement": "T/C", "setting": "dose: 200.0 mg/kg/injection, schedule: Q04DX003 (ip), vehicle: saline with Tween-80", "value": "104 % of control"}, {"measurement": "T/C", "setting": "dose: 400.0 mg/kg/injection, schedule: Q04DX003 (ip), vehicle: saline with Tween-80", "value": "100 % of control"}]}
{"smiles": "O=C1OC(OC/C(Br)=C(\\Br)COC2OC(=O)C(Cl)=C2Cl)C(Cl)=C1Cl", "note": "(centres undefined)", "values": [{"measurement": "T/C", "setting": "dose: 15.0 mg/kg/injection, schedule: Q01DX005 (ip), vehicle: saline with Tween-80", "value": "103 % of control"}, {"measurement": "T/C", "setting": "dose: 30.0 mg/kg/injection, schedule: Q01DX005 (ip), vehicle: saline with Tween-80", "value": "103 % of control"}, {"measurement": "T/C", "setting": "[10]", "value": "112 % of control"}]}
{"smiles": "C1CSCCCSCCCSCCCSC1", "values": [{"measurement": "T/C", "setting": "[1]", "value": "100 % of control"}, {"measurement": "T/C", "setting": "[2]", "value": "99 % of control"}, {"measurement": "T/C", "setting": "[3]", "value": "100 % of control"}]}
{"smiles": "CC(NNC(=S)N1CCCC1)c1cccc[n+]1[O-]", "note": "(centres undefined)", "values": [{"measurement": "T/C", "setting": "[6]", "value": "101 % of control"}, {"measurement": "T/C", "setting": "[13]", "value": "100 % of control"}, {"measurement": "T/C", "setting": "[14]", "value": "94 % of control"}]}
{"smiles": "CCOc1ccc(/C=N/NC(=O)C(O)c2ccccc2)cc1OC", "note": "(centres undefined)", "values": [{"measurement": "T/C", "setting": "[10]", "value": "96 % of control"}, {"measurement": "T/C", "setting": "[11]", "value": "100 % of control"}, {"measurement": "T/C", "setting": "[12]", "value": "94 % of control"}]}
{"smiles": "Nc1nc2cc3[nH]ncc3cc2c(=O)[nH]1", "values": [{"measurement": "T/C", "setting": "[4]", "value": "98 % of control"}, {"measurement": "T/C", "setting": "[5]", "value": "91 % of control"}, {"measurement": "T/C", "setting": "[6]", "value": "94 % of control and 97 % of control"}, {"measurement": "T/C", "setting": "[13]", "value": "101 % of control"}, {"measurement": "T/C", "setting": "[14]", "value": "102 % of control"}]}
{"smiles": "CCN(CC)C(=O)C(F)C(F)(F)C(F)(F)C(F)C(=O)N(CC)CC", "note": "(centres undefined)", "values": [{"measurement": "T/C", "setting": "[1]", "value": "108 % of control"}, {"measurement": "T/C", "setting": "[2]", "value": "99 % of control"}, {"measurement": "T/C", "setting": "[3]", "value": "98 % of control"}]}
{"smiles": "CCCCOC(=O)OOC(C)(C)C", "values": [{"measurement": "T/C", "setting": "dose: 50.0 mg/kg/injection, schedule: Q01DX009 (ip), vehicle: saline with Tween-80", "value": "110 % of control"}, {"measurement": "T/C", "setting": "dose: 100.0 mg/kg/injection, schedule: Q01DX009 (ip), vehicle: saline with Tween-80", "value": "110 % of control"}, {"measurement": "T/C", "setting": "dose: 200.0 mg/kg/injection, schedule: Q01DX009 (ip), vehicle: saline with Tween-80", "value": "110 % of control"}]}
